In article PMC12389586, “Anticancer Activity of Paclitaxel-Loaded Mesoporous Silica Nanoparticles in B16F10 Melanoma-Bearing Mice” (Pharmaceutics, 2025):

What was measured:
[1] = In vitro drug release test (dialysis pouch); format: physicochemical; settings: over 48 h; SBF pH 7.4, release medium SBF + 0.5% Tween 80
Procedure: The in vitro drug release of PTX from the formulation was measured as follows: PTX and PS (all containing 2 mg PTX) were placed in the cellulose membrane pouch (Snakeskin^TM Dialysis Tubing 10,000 MWCO; Thermo Fisher Scientific Inc.; Waltham, MA, USA), and 5 mL of SBF (pH 7.4) was added inside the cellulose membrane pouch. The cellulose membrane pouch was put into 50 mL of SBF containing 0.5% Tween 80 in a 250 mL beaker and shaken at 100 rpm in a dual-motion shaker (Finepcr; Gunpo-si, Republic of Korea). Samples (100 μL aliquots) were collected for 48 h, and then diluted 100-fold with mobile phase and injected into the LC-MS/MS system to measure the PTX concentration.
In this study, PS in 5 mL SBF was placed in a dialysis pouch, while the exterior release medium consisted of 50 mL of SBF + 0.5% Tween 80. This large external volume and surfactant content allowed the PTX released from the pouch to diffuse into the external medium and remain dissolved.

B16F10 cells [2] = experiment: Cell viability (MTT assay); format: cell-based; settings: Mus musculus, B16-F10, 48 h exposure, 0–1000 nM PTX or equivalent
Procedure: B16F10 cells were seeded at a density of 4 × 10^4 cells per well in a 96-well plate and incubated at 37 °C in a 5% CO2 atmosphere for 24 h to allow cell attachment and stabilization before drug administration. After 24 h, the medium was replaced with fresh culture media containing various PTX formulations (i.e., PTX, PS, PS with CUR, PS with TPGS, and PS with verapamil) at increasing concentrations (0, 10, 20, 50, 100, 200, 500, and 1000 nM) of PTX or its equivalent amount.
After 48 h of drug exposure, MTT reagent (0.5 mg/mL in PBS, 15 μL) was added to each well, followed by an additional 4 h incubation to allow mitochondrial dehydrogenase enzymes in viable cells to reduce MTT into insoluble formazan crystals. The resulting formazan was then solubilized using 150 μL DMSO, and the absorbance was measured at 592 nm using an ultraviolet (UV) spectrophotometer. Cell viability was calculated relative to the untreated control group. Data were fitted using the inhibitory effect model v=Emax(1−[I]/IC50+[I]) . Emax and IC50 represent uninhibited cell viability (%) and the concentration of PTX (nM) at which half-maximal inhibition occurs. [I] represents the concentration of PTX.

B16F10 spheroids = experiment: Cytotoxicity and PTX accumulation in 3D cultured spheroid; format: cell-based; settings: for spheroid growth / radius: 5 days, PTX 25 µg/mL or equivalent, CUR 200 µg/mL, TPGS 600 µg/mL, SMB7 200 µg/mL
Procedure: B16F10 cells were seeded at a density of 3 × 10^5 cells per well in an ultra-low attachment 96-well plate to facilitate spheroid formation. Immediately after seeding, the plate was centrifuged at […] for 15 min to promote cell aggregation. Following centrifugation, the spheroids were allowed to stabilize for 24 h before drug treatment. The spheroids were treated with the following conditions and grown for 5 days: control, 200 μg/mL of SMB7, 200 μg/mL of curcumin, 25 μg/mL of PTX, PS (equivalent to 25 μg/mL PTX), PS with curcumin (equivalent to 25 μg/mL PTX + 200 μg/mL curcumin), and PS with TPGS (equivalent to 25 μg/mL PTX + 600 μg/mL TPGS).
During the culture period, the spheroid radius was measured daily to assess tumor growth inhibition across different treatment groups. After five days, the spheroids were harvested, disrupted into a single-cell suspension, and analyzed for intracellular PTX and curcumin concentrations using LC–MS/MS. Additionally, the culture medium was collected from each well and analyzed to quantify the remaining extracellular concentrations of PTX and curcumin, providing further insights into drug uptake and retention within the spheroids.

B16F10 cells [3] = experiment: Apoptosis analysis by flow cytometry (Annexin V); format: cell-based; settings: 24 h; equivalent to 25 μg/mL PTX (+200 μg/mL CUR, +600 μg/mL TPGS)
Procedure: B16F10 cells were seeded at a density of 8 × 10^4 cells in a cell culture dish and cultured until a confluency of 80% was reached. Upon reaching the desired confluency, the culture medium was aspirated and replaced with fresh medium containing one of the following treatments: control, PTX (25 μg/mL), PS (equivalent to 25 μg/mL PTX), PSC (equivalent to 25 μg/mL PTX + 200 μg/mL curcumin), and PSCT (equivalent to 25 μg/mL PTX + 200 μg/mL curcumin + 600 μg/mL TPGS).
After 24 h of treatment, the culture supernatant was collected into a 15 mL conical tube. Cells were then detached using 1.5 mL of trypsin, and the resulting cell suspension—including detached cells and debris—was combined with the previously collected medium in the same tube. The samples were centrifuged at 1000 rpm for 3 min, and the supernatant was carefully discarded. The cell pellet was resuspended in 1 mL of DMEM supplemented with 10% FBS and 1% penicillin–streptomycin. Subsequently, 100 μL of the Muse Annexin V and Dead Cell kit (Cytek Biosciences Inc., Fremont, CA, USA) was added to the cell suspension, and the samples were incubated at room temperature in the dark for 20 min. Apoptosis and cell viability were then assessed using the Guava® Muse® Cell Analyzer (Cytek Biosciences Inc., Fremont, CA, USA).

β-tubulin = experiment: Confocal staining of β-tubulin and nuclei; format: cell-based; settings: B16F10 cells, 24 h; PTX 25 µg/mL or equivalent, CUR 200 µg/mL, TPGS 600 µg/mL, SMB7 200 µg/mL
Procedure: B16F10 cells were seeded at a density of 4 × 10^4 cells per well in a 24-well plate and cultured until a confluency of 80% was reached. Once the desired confluency was achieved, the culture medium was replaced with fresh media containing the following respective treatments: control, 200 μg/mL of SMB7, 200 μg/mL of curcumin, 25 μg/mL of PTX, PS (equivalent to 25 μg/mL PTX), PS with curcumin (equivalent to 25 μg/mL PTX + 200 μg/mL curcumin), and PS with TPGS (equivalent to 25 μg/mL PTX + 600 μg/mL TPGS).
Cells were incubated post-treatment for 24 h and then fixed and stained to visualize intracellular structures. DAPI was used for DNA staining to highlight nuclear morphology, and goat anti-Mouse IgG conjugated with FSD 594 was employed for β-tubulin staining to observe microtubule organization. As PTX primarily acts by stabilizing microtubules, fluorescence images were acquired using an LSM700 confocal laser scanning microscope (Carl Zeiss GmbH, Oberkochen, Germany). Confocal images were acquired at 100 × magnification to enhance the visualization of DNA and β-tubulin structures, enabling the assessment of PTX-induced cytoskeletal disruption and apoptosis-related nuclear changes.

[4] = Biodistribution in B16F10 melanoma-bearing mice; format: in vivo, C57BL/6 mice; settings: C57BL/6, mouse, subcutaneous, heart, lung, kidney, pancreas, liver and tumor tissues, read-out: PTX tissue concentration relative to plasma
Procedure: After the final injection, the mice from PTX + CUR, PSC, and PSCT groups were randomly subdivided into two time points (n = 5 for each subgroup; 2 h and 8 h post-administration) for pharmacokinetic and biodistribution analyses. At the designated time points (0.25, 1, and 2 h from the 2 h group; 0.5, 4, and 8 h from the 8 h group), blood samples (approximately 80 µL) were collected from the retro-orbital plexus of mice. For the PTX and CUR analyses, 30 µL of plasma aliquots were stored at −80 °C. At 2 h, the mice were anesthetized, and the organs (heart, lung, liver, kidney, pancreas, and tumor) were harvested, weighed, and homogenized using a MM400 Laboratory Ball Mixer Mill (Retsch, Haan, Germany). Aliquots (50 µL) of 20% tissue homogenates prepared using 10% MeOH were stored at −80 °C for subsequent analyses. […]
The biodistribution of PTX in various mouse tissues was quantified and expressed as a percentage of the injected dose per gram of tissue (%ID/g). […] The following formula was used to calculate the drug concentration in the tissue, which is measured (e.g., ng), normalized to the total injected dose, and further corrected based on the weight of the harvested tissue to standardize drug accumulation across different organs as follows: %ID/g=Drug amount in each organmg/Injected Dose mg×100×1/Organ weight (g) .

[5] = after 5 days of treatment, equivalent to 25 μg/mL PTX

CC(=O)O[C@H]1C(=O)[C@@]2(C)[C@H]([C@H](OC(=O)c3ccccc3)[C@]3(O)C[C@H](OC(=O)[C@H](O)[C@@H](NC(=O)c4ccccc4)c4ccccc4)C(C)=C1C3(C)C)[C@]1(OC(C)=O)CO[C@@H]1C[C@@H]2O [PTX, Paclitaxel]
drug release [1]: 6.58% | IC50 (B16F10 cells [2]): 283 nM | spheroid growth / radius (B16F10 spheroids): significantly suppressed the tumor growth of B16F10 spheroids | Incorporated PTX (B16F10 spheroids; [5]): 20.3% | PTX concentration (intracellular accumulation in spheroids) (B16F10 spheroids; [5]): 5.09 ± 0.16 µg/mL | early apoptosis (B16F10 cells [3]): 11.5% | late apoptosis (Late Apop./Dead) (B16F10 cells [3]): 9.8% | total apoptosis rate (B16F10 cells [3]): 21.3% | β-tubulin expression (microtubule integrity) (β-tubulin): pronounced decrease in β-tubulin intensity | Kp at 2 h [4]: > 100

COc1cc(/C=C/C(=O)CC(=O)/C=C/c2ccc(O)c(OC)c2)ccc1O [CUR, Curcumin]
spheroid growth / radius (B16F10 spheroids): significantly suppressed the tumor growth of B16F10 spheroids | β-tubulin expression (microtubule integrity) (β-tubulin): moderate reduction in β-tubulin expression
